# Experimental data taken from US8602544B2, “Ink set, ink cartridge, ink jet recording method, and ink jet recording apparatus” (Canon Kabushiki Kaisha, priority 2009, dated 2013).
# Assay: Determination of poor medium/good medium (solubility of the dye in a water-soluble organic solvent)
# Format: physicochemical
# Experimental: It is determined by the solubility of the dye whether a certain water-soluble organic solvent is a good medium or a poor medium with respect to a dye to be used together. In other words, the good medium and the poor medium are indexes which indicate the relationship between the water-soluble organic solvent and the dye from the viewpoint of the solubility.
# More specifically, it can be determined in the following way whether a certain water-soluble organic solvent is a good medium or a poor medium with respect to a dye being an object to be determined. The water-soluble organic solvent of an object to be determined and a sufficient amount of a dye are placed into a sample bottle having a capacity of approximately 20 cc, and the liquid is stirred overnight. […] Because the supernatant liquid after the centrifugal separation is a saturated solution of the dye, the solubility of the dye can be determined by measuring the absorbance of the liquid, and calculating the ratio of the measured absorbance to the absorbance of an aqueous solution of the dye with a known concentration.
# In order to evaluate the reliability of the ink, it was determined what type of relationship there was between a dye and a water-soluble organic solvent which were contained in an ink. A water-soluble organic solvent being an object to be determined (when the water-soluble organic compound is solid, it was a 20% aqueous solution of the solid) and a sufficient amount of the dye were placed into a sample bottle having a capacity of 20 cc, and the liquid was stirred overnight. […] Then, the solubility of the dye with respect to the water-soluble organic solvent being the object to be determined (or 20% aqueous solution) was determined from the ratio of the measured absorbance to the previously measured absorbance of an aqueous solution having a predetermined concentration of the dye. From the obtained solubility, a water-soluble organic solvent having a solubility of 5% or less was determined to be a poor medium, and a water-soluble organic solvent having a solubility of more than 5% was determined to be a good medium.
# [1] = 1-(2-hydroxyethyl)-2-pyrrolidinone
# [2] = Triethylene glycol monobutyl ether
SMILES,"Determination results for poor medium/good medium (solubility of the dye) (1,2-hexandiol)","Determination results for poor medium/good medium (solubility of the dye) (1,5-pentanediol)",Determination results for poor medium/good medium (solubility of the dye) [1],"Determination results for poor medium/good medium (solubility of the dye) (2-methyl-1,3-propanediol)",Determination results for poor medium/good medium (solubility of the dye) (Diethylene glycol),Determination results for poor medium/good medium (solubility of the dye) (Ethylene glycol),Determination results for poor medium/good medium (solubility of the dye) (Glycerin),Determination results for poor medium/good medium (solubility of the dye) (Propylene glycol),Determination results for poor medium/good medium (solubility of the dye) (Triethylene glycol),Determination results for poor medium/good medium (solubility of the dye) [2]
Cn1c(=O)c(C(=O)c2cccc(S(=O)(=O)O)c2)c2c3c(c(Nc4cc(Nc5nc(NCCNc6nc(Nc7cc(Nc8ccc9c%10c8C(=O)c8ccccc8-c%10c(C(=O)c8cccc(S(=O)(=O)O)c8)c(=O)n9C)c(S(=O)(=O)O)cc7S(=O)(=O)O)nc(Oc7ccc(S(=O)(=O)O)cc7)n6)nc(Oc6ccc(S(=O)(=O)O)cc6)n5)c(S(=O)(=O)O)cc4S(=O)(=O)O)ccc31)C(=O)c1ccccc1-2 [Exemplified compound M1],poor (a water-soluble organic solvent having a solubility of 5% or less was determined to be a poor medium),poor (a water-soluble organic solvent having a solubility of 5% or less was determined to be a poor medium),good (a water-soluble organic solvent having a solubility of more than 5% was determined to be a good medium),poor (a water-soluble organic solvent having a solubility of 5% or less was determined to be a poor medium),good (a water-soluble organic solvent having a solubility of more than 5% was determined to be a good medium),good (a water-soluble organic solvent having a solubility of more than 5% was determined to be a good medium),good (a water-soluble organic solvent having a solubility of more than 5% was determined to be a good medium),good (a water-soluble organic solvent having a solubility of more than 5% was determined to be a good medium),good (a water-soluble organic solvent having a solubility of more than 5% was determined to be a good medium),good (a water-soluble organic solvent having a solubility of more than 5% was determined to be a good medium)
CCc1cc(C)c(S(=O)(=O)O)c(CC)c1Nc1nc(N(c2nc3ccc(S(=O)(=O)O)cc3s2)c2c(CC)cc(C)c(S(=O)(=O)O)c2CC)cc(C)c1N=Nc1c(C#N)c(C(C)(C)C)nn1-c1nc2ccc(S(=O)(=O)O)cc2s1 [Exemplified compound M2],good (a water-soluble organic solvent having a solubility of more than 5% was determined to be a good medium),good (a water-soluble organic solvent having a solubility of more than 5% was determined to be a good medium),good (a water-soluble organic solvent having a solubility of more than 5% was determined to be a good medium),good (a water-soluble organic solvent having a solubility of more than 5% was determined to be a good medium),good (a water-soluble organic solvent having a solubility of more than 5% was determined to be a good medium),good (a water-soluble organic solvent having a solubility of more than 5% was determined to be a good medium),good (a water-soluble organic solvent having a solubility of more than 5% was determined to be a good medium),good (a water-soluble organic solvent having a solubility of more than 5% was determined to be a good medium),good (a water-soluble organic solvent having a solubility of more than 5% was determined to be a good medium),good (a water-soluble organic solvent having a solubility of more than 5% was determined to be a good medium)
